Test results as given in patent US8940690B2, “Synthetic conjugates and uses thereof” (National Institutes of Health (NIH), priority 2009, dated 2015).

How the values were obtained:
[1] = Serum insulin (PK) profile after subcutaneous injection, Human Insulin ELISA; assay type: in vivo, rat; details: 5 U/kg
Protocol: Blood samples were collected via tail vein bleeding at 0 minutes and at 30, 60, 90, 120, 150, 180, 210, 240, and 300 minutes after injection. Blood from each timepoint was centrifuged at 4 C to collect the serum. Serum insulin concentrations were subsequently measured with a commercially available ELISA kit (Human Insulin ELISA, Mercodia, Uppsala, Sweden).
This example describes the serum insulin and blood glucose depression profiles obtained for a subcutaneously administered exemplary conjugate. […] In this case, the conjugate was injected at 5 U/kg behind the neck of fasted normal non-diabetic rats (Male Sprague-Dawley, 400-500 g, n=3). […] Serum insulin concentrations were subsequently measured with a commercially available ELISA kit (Human Insulin ELISA, Mercodia, Uppsala, Sweden).
In each case, the conjugate or insulin lispro was injected at 3.5 U/kg behind the neck of fasted normal non-diabetic rats (Male Sprague-Dawley, 400-500 gm, n=6). […] Serum insulin concentrations were subsequently measured with a commercially available ELISA kit (Human Insulin ELISA, Mercodia, Uppsala, Sweden).
Blood samples were collected via tail vein bleeding at 0 minutes and at 30, 60, 90, 120, 150, 180, 210, 240, and 300 minutes after injection. […] Serum insulin concentrations were subsequently measured with a commercially available ELISA kit (Human Insulin ELISA, Mercodia, Uppsala, Sweden).

[2] = tested on: fasted normal non-diabetic rats (Male Sprague-Dawley); assay: Blood glucose depression profile after subcutaneous injection; assay type: in vivo, rat
Protocol: Subcutaneous injections of the insulin-dextran were administered using 0.25 ml of a sterilized 1×PBS solution (20 U of equivalent insulin/ml) behind the neck of fasted normal non-diabetic rats (Male Sprague-Dawley, 200-250 g, n=4). Blood samples were collected via tail vein bleeding at −15 and 0 minutes, and at 15, 30, 45, 60, 90, 120, 180, 240, 300 and 360 minutes after injection. Blood glucose values were measured using commercially available test strips (Precision Xtra, Abbott Laboratories, Abbott Park, Ill.).
This example evaluates the in vivo pharmacodynamic profile of subcutaneously administered insulin-glycogen. […] The bioactivity of the insulin-glycogen conjugate was evaluated by injecting a 2.5 equivalent U of insulin/kg dose behind the neck of fasted normal non-diabetic rats (Male Sprague-Dawley, 200-250 g, n=4). Blood samples were collected via tail vein bleeding at −15 and 0 minutes, and at 15, 30, 45, 60, 90, 120, 180, 240, 300 and 360 minutes after injection. Blood glucose values were measured using commercially available test strips (Precision Xtra, Abbott Laboratories, Abbott Park, Ill.).

[3] = 0.25 ml of 20 U of equivalent insulin/ml

B29-substituted conjugate: synthesized using TSAT-C6 as the framework, AEM as the affinity ligand, and recombinant human insulin as the drug
pharmacokinetic profile (serum insulin) compared to RHI and B1-substituted conjugate [1]: statistically indistinguishable from that of RHI

insulin-dextran: comparative insulin-dextran conjugate (dextran MW 70K) made by CNBr coupling, 10% (w/w) insulin
time serum glucose levels remain depressed post injection [2, 3]: at least five
time to reach the glucose nadir (Tnadir) [2, 3]: about 3 hours

insulin-glycogen: comparative insulin-glycogen conjugate from oyster glycogen Type II according to US 20070099820
glucose lowering compared to insulin-dextran conjugates ([2]; 2.5 equivalent U of insulin/kg): lower glucose levels much more rapidly and to a greater extent
